Source: PubChem BioAssay AID1053207 (Broad Institute, 2014)
The source made the active and inactive calls. How the calls were made is not given here.

Experiments:
[1] = Vaccinia stage specific inhibitors, mCherry reporter channel, infected cells, confirmatory dose response (AID 1053207); details: Vaccinia-infected cells, mCherry/Venus stage reporter fluorescence; for max activity: measured here: Venus reporter max activity
[2] = system: Vaccinia-infected cells, mCherry/Venus stage reporter fluorescence; test: as above
[3] = measured here: mCherry reporter channel

Compound	max activity ([1]; at 2.6 µM)	AC50 [2]	AC50 [2, 3]	activity change, negative = inhibition ([1]; at 19.5 µM (top of the series))	max activity ([1]; at 10 µM)	AC50 ([2]; measured here: Venus reporter channel)	max activity ([1]; at 1.2 µM)
C[C@@H](O)C#Cc1ccc2c(c1)O[C@@H](CN(C)Cc1ccc(-c3ccccc3Cl)cc1)[C@@H](C)CN([C@@H](C)CO)S2(=O)=O	145%	1190 nM	1190 nM				
C[C@@H](O)C#Cc1ccc2c(c1)O[C@@H](CN(C)Cc1ccc(-c3ccccc3)cc1)[C@@H](C)CN([C@@H](C)CO)S2(=O)=O	115%	2350 nM	2350 nM				
Cc1ccccc1-c1ccc(CN(C)C[C@@H]2Oc3cc(C#C[C@@H](C)O)ccc3S(=O)(=O)N([C@@H](C)CO)C[C@@H]2C)cc1	157%	1230 nM	1230 nM				
C[C@@H](O)C#Cc1ccc2c(c1)O[C@@H](CN(C)S(=O)(=O)c1ccc(-c3ccccc3)cc1)[C@@H](C)CN([C@@H](C)CO)S2(=O)=O			> 39000 nM	-18.5% (inactive)	-14.6%	> 39000 nM	
Cc1ccc(-c2ccc(CN(C)C[C@@H]3Oc4cc(C#C[C@@H](C)O)ccc4S(=O)(=O)N([C@@H](C)CO)C[C@@H]3C)cc2)cc1		1250 nM	1250 nM				122%
Cc1cccc(-c2ccc(CN(C)C[C@@H]3Oc4cc(C#C[C@@H](C)O)ccc4S(=O)(=O)N([C@@H](C)CO)C[C@@H]3C)cc2)c1	140%	1660 nM	1660 nM				
